This is an account of results in paper PMC4391943, “Novel Epigallocatechin-3-Gallate (EGCG) Derivative as a New Therapeutic Strategy for Reducing Neuropathic Pain after Chronic Constriction Nerve Injury in Mice” (PLoS ONE, 2015).

Details of series [1]: method as in PMID 22559865. The note with it: daily doses of 5, 25 or 40 mg/Kg; cited from earlier work.
A further series has as its system FASN. On the set-up: method as in PMID 22559865. As to conditions: previously reported; cited from earlier work.
For the next series, the system named is NF-κB. Put plainly: Western blot of nuclear NF-κB levels in the dorsal horn of the spinal cord. It counts as in vivo, mice. As to conditions: 50 mg/Kg, 14 dpi. Here is the method:
Subcellular fractionation was obtained by differential centrifugation as described elsewhere. Briefly, tissue was homogenized in lysis buffer (10 mM Tris-HCl pH 7.5, 1 mM EDTA, 1 mM Na3VO4, 0.25 M sucrose, 2 mM PMSF, 1 μg/μL aprotinin, 1 μg/μL leupeptin, 2 mM sodium orthovanadate). The homogenate was centrifuged at 2,000 × g for 10 min at 4°C to separate the nuclei fraction (P1). The P1 was resuspended in lysis buffer. The resulting supernatant was centrifuged at 10,000×g for 15 min at 4°C to obtain a crude membrane fraction (P2). The P2 was resuspended and incubated in the lysis buffer containing 0.5% Triton X-100 for 15 min, and then centrifuged at 25,000 × g for 20 min to obtain the synaptosomal membrane fraction (P3). Finally, the P3 was resuspended in lysis buffer and centrifuged on a discontinuous sucrose gradient (0.8 M, 1 M and 1.2 M) at 150,000×g for 2 h. Synaptic plasma membrane (SPM) was collected from the 1:1.2 M interface and resuspended in 50 mM HEPES, 2 mM EDTA, 1 mM PMSF, 10 μg/ml aprotinin, 1 μg/ml leupeptin and 2 mM sodium orthovanadate.
(§1) Western blotting was performed as previously described. The following primary antibodies were used: anti-FASN (1:1000, BD Bioscience, San Jose, CA); anti-TNF-α, anti-IL-1β, anti-IL-6 and anti-NFκB (all 1:500, Santa Cruz Biotechnology, Santa Cruz, CA); anti-phosphoNMDAR2B (Tyr1472) (1:2000, Affinity Bioreagents, Golden, CO) and anti-NMDAR2B (1:1000, Chemicon, Temecula, CA). Loading control was performed by reprobing the membranes with anti-actin (1:10,000; MP Biochemicals, Aurora, OH), anti-NeuN (1:1,000; Chemicon) or anti-N-cadherin (1:1000, BD Bioscience). Membranes were incubated with the corresponding horseradish peroxidase-conjugated antibody (1:2,000; Promega, Madison, WI). Immunoreactive bands were visualized using the Western Blotting Luminol Reagent and quantified by a computer-assisted densitometer (Gel-Pro Analyzer, version 4, Media Cybernetics).

A short description of series [2]: Toxicity studies: body weight, food and fluid intake, histological examination. It counts as in vivo, mice. The note with it: vs control animals (data not shown).
Details of series [3]: method as in PMID 20008854, PMID 22559865, PMID 17902053. As to conditions: previously published toxicity studies; cited from earlier work.
A further series relates to TNF-α, IL-1β and IL-6. Put plainly: Western blot of cytokine protein levels in the dorsal horn of the spinal cord. Format: in vivo, mice. As to conditions: 50 mg/Kg, 14 dpi. On the procedure: Mice (n = 5 per group) were sacrificed with sodium pentobarbital (90 mg/kg; i.p.) at 14 and 56 dpi and spinal cord segments distal to T12 vertebra were quickly removed and frozen. For total protein extraction, the dorsal horn of the spinal cord was homogenized in modified RIPA buffer (50 mM Tris–HCl pH 7.5, 1% Triton X-100, 0.5% sodium deoxycholate, 0.2% SDS, 100 mM NaCl, 1 mM EDTA, 2 mM PMSF, 1 μg/μL aprotinin, 1 μg/μL leupeptin and 2 mM sodium orthovanadate).
as §1

The nature of series [4]: Hepatic, renal and hematological function serum markers in treated mice. It counts as in vivo, Balb/c. As to conditions: for Hematocrit / Hemoglobin / Lymphocytes / Monocytes / Neutrophils / platelet count: Balb/c; for ALP (alkaline phosphatase), hepatic function / ALT (alanine transaminase), hepatic function / AST (aspartate transaminase), hepatic function / BUN (urea), renal function / Creatinin, renal function: Balb/c serum.

Where two headings read alike, the source gives them in different places.

With `O=C(Oc1cccc2c(OC(=O)c3cc(O)c(O)c(O)c3)cccc12)c1cc(O)c(O)c(O)c1` [Compound 23, 1,5-Bis [(3,4,5-trihydroxybenzoyl)oxy] naphthalene], the “hepatic, renal and hematological function serum markers vs control” value in series [1] was “no significant alteration”. The “% of FASN inhibition” value in the series on FASN is given as 30%. Further, the “nuclear NF-κB levels” value with NF-κB was “no changes”. The “histological examination of liver, heart, kidney lung and brain” value in series [2] is given as “no microscopic evidence of drug induces toxicity”. Besides, the “changes on body weight versus the control group” value in series [3] is given as “neither 23 nor 30 caused changes on body weight”.
Consider `O=C(Oc1ccc(-c2ccc(OC(=O)c3cc(O)c(O)c(O)c3)cc2)cc1)c1cc(O)c(O)c(O)c1` [Compound 30, 4,4′-Bis [(3,4,5-trihydroxybenzoyl)oxy]-1,1′-biphenyl], for which the “% of FASN inhibition” value in the series with FASN is recorded as 90%. The “nuclear NF-κB levels” value in the series with NF-κB is “reduced”. Besides, the “histological examination of liver, heart, kidney lung and brain” value in series [2] is “no microscopic evidence of drug induces toxicity”. The “protein levels of TNF-α, IL-1β and IL-6 compared to vehicle group” value with TNF-α, IL-1β and IL-6 is “reduced”. In series [4] (50 mg/Kg), the Hematocrit is 42.4 ± 2.2%, the Hemoglobin came out at 14.2 ± 0.8 g/dL, the Lymphocytes amounted to 51.2 ± 13.9% and the Monocytes stood at 1.4 ± 0.1%. In addition, in series [4] (50 mg/Kg), the Neutrophils worked out at 32.0 ± 22.9%; the platelet count was 826 10^3/µL; the “ALP (alkaline phosphatase), hepatic function” value is listed as 97.2 ± 20.3 U/L; the “ALT (alanine transaminase), hepatic function” value came out at 210.3 ± 28.2 U/L. In series [4] (50 mg/Kg), the “AST (aspartate transaminase), hepatic function” value is recorded as 266.5 + 80.3 U/L; the “BUN (urea), renal function” value amounted to 21.9 ± 7.5 mg/dL; the “Creatinin, renal function” value was 0.30 ± 0.1 mg/dL. In series [4] (75 mg/Kg), this molecule registered a Hematocrit of 38.3 ± 2.8%, a Hemoglobin of 13.6 ± 0.3 g/dL, a Lymphocytes of 50.2 ± 7.5% and a Monocytes of 1.9 ± 1.4%. Also, in series [4] (75 mg/Kg), the Neutrophils was found to be 30.7 ± 8.1%; the platelet count is 849 10^3/µL; the “ALP (alkaline phosphatase), hepatic function” value is listed as 86.5 ± 30.3 U/L; the “ALT (alanine transaminase), hepatic function” value is 290.2 + 31 U/L. Also, in series [4] (75 mg/Kg), the “AST (aspartate transaminase), hepatic function” value is on record as 320.3 + 45.5 U/L; the “BUN (urea), renal function” value turned out to be 21.1 ± 6.8 mg/dL; the “Creatinin, renal function” value was 0.31 ± 0.1 mg/dL. Further, in series [4] (daily doses of 50 and 75 mg/Kg (S2 Table)), the “hepatic, renal and hematological function serum markers vs control” value is on record as “no significant alteration”. Also, the “changes on body weight versus the control group” value in series [3] is listed as “neither 23 nor 30 caused changes on body weight”.
On to epigallocatechin-3-gallate [EGCG], for which the “nuclear NF-κB levels” value with NF-κB is on record as “reduced”. Further, the “protein levels of TNF-α, IL-1β and IL-6 compared to vehicle group” value in the series on TNF-α, IL-1β and IL-6 is recorded as “reduced”.
